Experiments:
[1] = system: A. flavus strain IFM50915; assay: A. flavus respiratory tract infection model; type: in vivo, mice; settings: for Combined effects in mouse Aspergillus flavus infection model: combination with the test compound of the invention
Method: Female DBA/2N mice (age 8 weeks, Charles River Laboratories Japan, Inc.) were subcutaneously administered 200 mg/kg of 5-fluorouracil 5 or 6 days prior to infection in order to put the mice into a compromised state.
A. fumigatus strain IFM52108 and A. flavus strain IFM50915 were used.
A liquid containing spores of A. flavus strain IFM50915 stored at −80° C. was thawed, and the number of spores was counted using a hemocytometer followed by diluting with sterile physiological saline containing 0.05% Tween 80 to a concentration of 0.6×10^6 cells/mL to 1.0×10^6 cells/mL to obtain an inoculation fungus liquid.
50 μl of inoculation fungus liquid were inoculated into the nasal cavities of 9-week-old mice at 0.3×10^5 cells/mouse to 1.25×10^5 cells/mouse under Ketalar anesthesia.
0.1 mL to 0.2 mL of each drug solution (dissolved in sterile physiological saline or 5% glucose solution, or dissolved in sterile physiological saline or 5% glucose solution containing 6.5% dimethylsulfoxide and 3.5% Tween 80) was administered to the individual and combination dose groups either into the peritoneal cavity or into the stomach using a gastric cannula corresponding to the administration route of the drug for 3 to 4 days at the rate of 1 to 2 times per day starting 0.5 hours to 1 hour after inoculation of fungus.
There were 5 to 9 animals in each group.
Infection protection results were assessed on survival rate 14 days after infection.

A. flavus = assay: In vitro combination effects, checkerboard method by micro dilution (FIC index); type: cell-based, Aspergillus flavus; settings: A. flavus (4 strains), Table 1
Method: (§1) A clinically isolated strain retained by the Medical Mycology Research Center of Chiba University (Code No. IFM) and a clinically isolated strain retained by the Life Science Research Center of Gifu University (Code No. E) were used as Candida and Aspergillus strains.
(§2) An Aspergillus strain stored frozen at −80° C., or spores obtained by static culturing at 35° C. for 1 week in Potato Dextrose agar medium (PDA, Eiken Chemical Co., Ltd.) followed by scraping from the container with a metal loop, was diluted with RPMI 1640 medium containing 0.165 M MOPS to prepare a fungus liquid having a fungus concentration of 0.75×10^4 cells/mL to 1.33×10^4 cells/mL.
(§3) Test Compound 1 (0.0005 μg/mL to 1.56 μg/mL) in the horizontal rows (12 wells) of a 96-well flat-bottom plate, and an antifungal agent in the form of ravuconazole (0.0015 μg/mL to 6.25 μg/mL), fluconazole (0.008 μg/mL to 32 μg/mL), voriconazole (0.0002 μg/mL to 8 μg/mL), micafungin (0.0005 μg/mL to 0.25 μg/mL), caspofungin (0.0005 μg/mL to 1 μg/mL) or amphotericin B (0.008 μg/mL to 8 μg/mL) in the vertical rows (8 wells) of the flat-bottom plate were prepared by diluting so as to blend together using RPMI 1640 medium containing 0.165 M MOPS to obtain a control group, a single Test Compound 1 group, each one of antifungal agents groups and combination groups of Test Compound 1+each one of antifungal agents.
(§4) The fungus liquids prepared in (1) were inoculated into the wells of 96-well flat-bottom plate containing 20 μL/well to 75 μL/well of the diluted test drug liquids prepared in (2) at 80 μL/well to 125 μL/well, followed by aerobically static culturing for 25 hours to 48 hours at 35° C.
(§5) Combination effects of Test Compound 1 and the antifungal agents were measured with the checkerboard method by micro dilution.
(§6) Interaction between both drugs was assessed by calculating the FIC index using the calculation formula indicated below.
(§7) The FIC index was calculated for each combination of antifungal agent concentrations that inhibited fungal growth, and the minimum value of the resulting FIC index was used as a combination FIC index.
(§8) A combination FIC index of 0.5 or less was evaluated as indicating synergistic action, that of 0.5 to 1 or less was evaluated as indicating additive action, and that of 1 to 4 or less was evaluated as indicating indifferent action.
(§9) FIC Index=(MIC value of drug A during combination use/MIC value of drug A when used alone)+(MIC value of drug B during combination use/MIC value of drug B when used alone) (Calculation Formula)

C. albicans = assay: as above; type: cell-based, Candida albicans; settings: C. albicans (20 strains); combination use with Test Compound 1
Method: as §1
(§10) Fungus liquid obtained by static culturing at 35° C. for 48 hours in Sabouraud Dextrose liquid medium (SDB, Becton, Dickinson and Co.) was diluted with RPMI 1640 medium (Nissui Pharmaceutical Co., Ltd.) containing 0.165 M 3-(N-morpholino)propanesulfonic acid (MOPS) to prepare a fungus liquid having a fungus concentration of 1×10^3 cells/mL to 2×10^3 cells/mL.
as §3, §4, §5, §6, §7, §8, §9

A. fumigatus = assay: as above; type: cell-based, Aspergillus fumigatus; settings: A. fumigatus (18 strains)
Method: as §1, §2, §3, §4, §5, §6, §7, §8, §9

C. tropicalis = assay: as above; type: cell-based, Candida tropicalis; settings: C. tropicalis (10 strains); combination use with Test Compound 1
Method: as §1, §10, §3, §4, §5, §6, §7, §8, §9

C. glabrata = assay: as above; type: cell-based, Candida glabrata; settings: for Ratio indicating Additive effect of combination use with Test Compound 1 / Ratio indicating Antagonistic effect of combination use with Test Compound 1 / Ratio indicating Indifferent effect of combination use with Test Compound 1 / Ratio indicating Synergistic effect of combination use with Test Compound 1: C. glabrata (10 strains)
Method: as §1, §10, §3, §4, §5, §6, §7, §8, §9

Row | SMILES | Combined effects in mouse Aspergillus flavus infection model [1] | Ratio indicating Additive effect of combination use with Test Compound 1 (A. flavus) [%] | Ratio indicating Antagonistic effect of combination use with Test Compound 1 (A. flavus) [%] | Ratio indicating Indifferent effect of combination use with Test Compound 1 (A. flavus) [%] | Ratio indicating Synergistic effect of combination use with Test Compound 1 (A. flavus) [%] | Ratio indicating Additive effect of combination use with Test Compound 1 (C. albicans) [%] | Ratio indicating Antagonistic effect of combination use with Test Compound 1 (C. albicans) [%] | Ratio indicating Indifferent effect of combination use with Test Compound 1 (C. albicans) [%] | Ratio indicating Synergistic effect of combination use with Test Compound 1 (C. albicans) [%] | Ratio indicating Additive effect of combination use with Test Compound 1 (A. fumigatus) [%] | Ratio indicating Antagonistic effect of combination use with Test Compound 1 (A. fumigatus) [%] | Ratio indicating Indifferent effect of combination use with Test Compound 1 (A. fumigatus) [%] | Ratio indicating Additive effect of combination use with Test Compound 1 (C. tropicalis) [%] | Ratio indicating Antagonistic effect of combination use with Test Compound 1 (C. tropicalis) [%] | Ratio indicating Indifferent effect of combination use with Test Compound 1 (C. tropicalis) [%] | Ratio indicating Synergistic effect of combination use with Test Compound 1 (C. tropicalis) [%] | Ratio indicating Additive effect of combination use with Test Compound 1 (C. glabrata) [%] | Ratio indicating Antagonistic effect of combination use with Test Compound 1 (C. glabrata) [%] | Ratio indicating Indifferent effect of combination use with Test Compound 1 (C. glabrata) [%] | Ratio indicating Synergistic effect of combination use with Test Compound 1 (C. glabrata) [%] | further results
1 | C[C@@H]1[C@H](O)[C@@H](C)/C=C/C=C/C=C/C=C/C=C/C=C/C=C/[C@H](O[C@@H]2O[C@H](C)[C@@H](O)[C@H](N)[C@@H]2O)C[C@@H]2O[C@](O)(C[C@@H](O)C[C@@H](O)[C@H](O)CC[C@@H](O)C[C@@H](O)CC(=O)O[C@H]1C)C[C@H](O)[C@H]2C(=O)O [Amphotericin B, amphotericin B] | synergistic combined effects | 25 | 0 | 75 | 0 | 85 | 0 | 10 | 5 | 33 | 0 | 67 | 90 | 0 | 10 | 0 | 70 | 0 | 0 | 30 | 14-day survival rate ([1]; AMPH 0.5 mg/kg): 20%; 14-day survival rate ([1]; AMPH 1 mg/kg): 0%; Ratio indicating Synergistic effect of combination use with Test Compound 1 (A. fumigatus): 0%; Effect of combination use with Test Compound 1 (FIC index evaluation) (C. glabrata; Candida glabrata strain IFM46888, resistant to fluconazole): synergistic (A combination FIC index of 0.5 or less was evaluated as indicating synergistic action)
2 | CC[C@H](C)C[C@H](C)CCCCCCCCC(=O)N[C@H]1C[C@@H](O)[C@@H](NCCN)NC(=O)[C@@H]2[C@@H](O)CCN2C(=O)[C@H]([C@H](O)CCN)NC(=O)[C@H]([C@H](O)[C@@H](O)c2ccc(O)cc2)NC(=O)[C@@H]2C[C@@H](O)CN2C(=O)[C@H]([C@@H](C)O)NC1=O [Caspofungin, caspofungin] | synergistic combined effects | 25 | 0 | 0 | 75 | 85 | 0 | 15 | 0 | 22 | 0 | 0 | 90 | 0 | 10 | 0 | 100 | 0 | 0 | 0 | 14-day survival rate ([1]; CSFG 0.1 mg/kg, Table 5): 37.5%; 14-day survival rate ([1]; CSFG 0.2 mg/kg, Table 5): 50%; 14-day survival rate ([1]; CSFG 0.25 mg/kg, Table 4): 20%; 14-day survival rate ([1]; CSFG 0.5 mg/kg, Table 4): 60%; Ratio indicating Synergistic effect of combination use with Test Compound 1 (A. fumigatus): 78%
3 | OC(Cn1cncn1)(Cn1cncn1)c1ccc(F)cc1F [Fluconazole, fluconazole] |  |  |  |  |  | 80 | 0 | 10 | 10 |  |  |  | 10 | 0 | 0 | 90 | 90 | 0 | 10 | 0 | 
4 | Nc1c(-c2cc(Cc3ccc(COc4ccccn4)cc3)no2)ccc[n+]1COP(=O)([O-])O [Test Compound 2, 2-amino-1-((phosphonooxy)methyl)-3-(3-((4-((2-pyridinyloxy)methyl)phenyl)methyl)-5-isoxazolyl)-pyridinium] |  |  |  |  |  |  |  |  |  |  |  |  |  |  |  |  |  |  |  |  | 14-day survival rate ([1]; Test Compound 2 2.5 mg/kg, Table 5 CSFG experiment): 0%; 14-day survival rate ([1]; Test Compound 2 5 mg/kg, Table 5 CSFG experiment): 50%; 14-day survival rate ([1]; Test Compound 2 5 mg/kg, Table 5 L-AmB experiment): 0%; 14-day survival rate ([1]; Test Compound 2 5 mg/kg, Table 5 MCFG experiment): 22.2%; 14-day survival rate ([1]; Test Compound 2 10 mg/kg, Table 5 MCFG experiment): 55.6%

Source: patent publication US20130288956A1, “COMBINED PHARMACEUTICAL COMPOSITION AS ANTIFUNGAL AGENT” (priority 2010, published 2013)
